Source: patent US20060229433A1, “Modified antiviral peptides with increased activity and cell membrane affinity” (priority 2003, published 2006)
“And” between values parts separate entries of the source, which are not always exact repeats. Equal values may be shown once. Bridge positions count the residues as written; N and C are the ends. Square brackets hold non-standard residues; d marks the D form. Peptide text beside a SMILES is read from it. I, II: the chains in the order shown. Ava = NCCCCC(=O)O

Experiments:
HIV-1 NL 4-3 [1] = experiment: Infection of human peripheral blood lymphocytes (PBL) with NL 4-3 strain, p24 ELISA; format: cell-based
Description: Peripheral blood lymphocytes from an HIV-1 negative donor were grown as described earlier, maintained in RPMI 1640 with ultraglutamine, supplemented with IL2 (20 μg/ml), penicillin (100 U/ml), streptomycin (100 μg/ml), and 10% heat-inactivated fetal calf serum. Cells were stimulated three days in the medium supplemented with phytohemagglutinin (20 U/ml PHA P, DIFCO, Detroit Mich.).
Samples of 10^6/100 μL PBL cells were preincubated in 96-well microtiter plates in culture medium containing various concentrations of peptides. After a 1 h treatment at 37° C., 100 μl of diluted viral solution of HIV-1 was added. The cells were exposed to the virus for 1 h at 37° C. at a multiplicity of infection of 1000 TCID50 per ml. The cells were washed three times and cultured at […] of medium with the treatment in 24-well plates incubated at 37° in culture medium with the peptides in 5% CO2. The treatment was permanent before virus adsorption, during virus adsorption and after infection. The PBL culture medium was replaced every 3-4 days during three weeks always in the presence of peptide. The cell viability was assessed by cell counts and trypan-blue exclusion assay. The viral production in the culture supernatant was quantified by p24 ELISA test, as described earlier. All the experiments have been done in blind-tests. Tests have been done in duplicate.

[2] = tested on: HIV-1 89.6 subtype B dualtropic (X4R5); settings: PBMC, Table 5
HIV-1 NL 4-3 [3] = experiment: HIV-1 infection of C8166 cells (syncytia formation, p24 ELISA) with HIV-1 NL 4-3; format: cell-based; settings: for IC50: C8166 cells, HIV-1 subtype B NL 4-3, Table 3
Description: (§1) HIV-1 NL 4-3 isolate (Adachi et al., 1986; Barré-Sinoussi et al., 1983) and highly cytopathic Zairian HIV-1 NDK isolate (Ellrodt et al., 1984) was propagated in permissive CEM cells (Nara et al., 1987). Uninfected CEM and C8166 (Salahuddin et al., 1983) were maintained in RPMI 1640 (R10) with ultraglutamine (cambrex, Vervier, Belgium), penicillin (100 U/ml), streptomycin (100 μg/ml), and 10% heat-inactivated fetal calf serum (Cambrex).
(§2) Samples of 3×10^5/100 μL C8166 cells were preincubated in 96-well microtiter plates in culture medium containing various concentrations of peptide. After a 1 h treatment at 37° C., 100 μl of diluted viral solution of HIV-1 was added. The cells were exposed to the virus for 1 h at 37° C. at a multiplicity of infection of 1000 TCID50 per ml. The cells were washed three times and cultured at 3×10^5/ml of R10 with the treatment in 24-well plates incubated at 37° C. C8166 culture medium was replaced at Day-4 post-infection. The treatment was permanent before virus adsorption, during virus adsorption and after infection. Assays on C8166 cells have been performed at least twice and in duplicate. Toxicity was evaluated by daily cell count and trypan-blue exclusion assay. Infection of C8166 T-cells with HIV-1 was assessed by virus-induced cytopathic effects (syncytia formation) and by quantification of cell free p24 viral protein in the culture supernatants. Measurements of HIV-1 p24^gag concentration in the culture supernatants were achieved by ELISA (ALLIANCE® HIV-1 p24 kit, Perkin Elmer, life sciences, USA).

HIV-1 NL 4-3 [4] = experiment: as above; format: cell-based; design: key: ++, +, (+), (+)− and − represent decreasing numbers of syncitia formed.; ++, +, (+), (+)− and − represent decreasing numbers of syncitia formed.; ++, +, (+), (+)− and − represent decreasing numbers of syncitia formed.; ++, +, (+), (+)− and − represent decreasing numbers of syncitia formed.; ++, +, (+), (+)− and − represent decreasing numbers of syncitia formed; settings: Table 2
Description: as §1, §2

HIV-1 NL 4-3 [5] = experiment: as above; format: cell-based; design: key: ++, +, (+), (+)− and − represent decreasing numbers of syncitia formed; ++, +, (+), (+)− and − represent decreasing numbers of syncitia formed; ++, +, (+), (+)− and − represent decreasing numbers of syncitia formed; ++, +, (+), (+)− and − represent decreasing numbers of syncitia formed; ++, +, (+), (+)− and − represent decreasing numbers of syncitia formed; settings: Table 1
Description: as §1, §2

Molecule: CC(C)C[C@H](NC(=O)[C@@H]1CCCN1C(=O)[C@H](CO)NC(=O)[C@H](Cc1ccc(O)cc1)NC(=O)CNC(=O)[C@H](CCC(N)=O)NC(=O)[C@@H](N)CCCNC(=N)N)C(=O)NCCCC[C@H](NC(=O)[C@H](CC(C)C)NC(=O)[C@@H]1CCCN1C(=O)[C@H](CO)NC(=O)[C@H](Cc1ccc(O)cc1)NC(=O)CNC(=O)[C@H](CCC(N)=O)NC(=O)[C@@H](N)CCCNC(=N)N)C(=O)NCCCCC(=O)O [RL dimer valeric acid, (RQGYSPL)2-K—NHCH2CH2CH2CH2COOH] (I: H-RQGYSPLK[Ava]-OH / II: H-RQGYSPL; amide I:8-II:C; N-terminus assumed)
- IC50 (HIV-1 NL 4-3 [1]; PBL, NL 4-3 strain, Table 4): 5 nM
- IC100 (HIV-1 NL 4-3 [1]; PBL, NL 4-3 strain, Table 4): 0.05 µM
- IC50 [2]: 10 nM
- IC100 [2]: 0.5 µM
- IC50 (HIV-1 NL 4-3 [3]): 50 nM

Molecule: CC(C)C[C@H](NC(=O)[C@@H]1CCCN1C(=O)[C@H](CO)NC(=O)[C@H](Cc1ccc(O)cc1)NC(=O)CNC(=O)[C@H](CCC(N)=O)NC(=O)[C@@H](N)CCCNC(=N)N)C(=O)NCCCCC(=O)O [RL monomer valeric acid, RQGYSPL-NHCH2CH2CH2CH2COOH] (H-RQGYSPL[Ava]-OH)
- IC50 (HIV-1 NL 4-3 [1]; PBL, NL 4-3 strain, Table 4): 10 nM
- IC100 (HIV-1 NL 4-3 [1]; PBL, NL 4-3 strain, Table 4): 1 µM
- IC50 [2]: 10 nM
- IC100 [2]: 0.1 µM
- IC50 (HIV-1 NL 4-3 [3]): 50 nM

Molecule: CC(C)C[C@H](NC(=O)[C@@H]1CCCN1C(=O)[C@H](CO)NC(=O)[C@H](Cc1ccc(O)cc1)NC(=O)CNC(=O)[C@H](CCC(N)=O)NC(=O)[C@@H](N)CCCNC(=N)N)C(=O)NCCCC[C@H](NC(=O)[C@H](CC(C)C)NC(=O)[C@@H]1CCCN1C(=O)[C@H](CO)NC(=O)[C@H](Cc1ccc(O)cc1)NC(=O)CNC(=O)[C@H](CCC(N)=O)NC(=O)[C@@H](N)CCCNC(=N)N)C(=O)NCCCC[C@H](NC(=O)[C@H](CCCCNC(=O)[C@H](CC(C)C)NC(=O)[C@@H]1CCCN1C(=O)[C@H](CO)NC(=O)[C@H](Cc1ccc(O)cc1)NC(=O)CNC(=O)[C@H](CCC(N)=O)NC(=O)[C@@H](N)CCCNC(=N)N)NC(=O)[C@H](CC(C)C)NC(=O)[C@@H]1CCCN1C(=O)[C@H](CO)NC(=O)[C@H](Cc1ccc(O)cc1)NC(=O)CNC(=O)[C@H](CCC(N)=O)NC(=O)[C@@H](N)CCCNC(=N)N)C(=O)NCCCC[C@H](NC(=O)[C@H](CCCCNC(=O)[C@H](CCCCNC(=O)[C@H](CC(C)C)NC(=O)[C@@H]1CCCN1C(=O)[C@H](CO)NC(=O)[C@H](Cc1ccc(O)cc1)NC(=O)CNC(=O)[C@H](CCC(N)=O)NC(=O)[C@@H](N)CCCNC(=N)N)NC(=O)[C@H](CC(C)C)NC(=O)[C@@H]1CCCN1C(=O)[C@H](CO)NC(=O)[C@H](Cc1ccc(O)cc1)NC(=O)CNC(=O)[C@H](CCC(N)=O)NC(=O)[C@@H](N)CCCNC(=N)N)NC(=O)[C@H](CCCCNC(=O)[C@H](CC(C)C)NC(=O)[C@@H]1CCCN1C(=O)[C@H](CO)NC(=O)[C@H](Cc1ccc(O)cc1)NC(=O)CNC(=O)[C@H](CCC(N)=O)NC(=O)[C@@H](N)CCCNC(=N)N)NC(=O)[C@H](CC(C)C)NC(=O)[C@@H]1CCCN1C(=O)[C@H](CO)NC(=O)[C@H](Cc1ccc(O)cc1)NC(=O)CNC(=O)[C@H](CCC(N)=O)NC(=O)[C@@H](N)CCCNC(=N)N)C(=O)NCCC(=O)O [RL, (RQGYSPL)8-K4-K2-K-βA-OH, reference compound]
- IC50 (HIV-1 NL 4-3 [1]; PBL, NL 4-3 strain, Table 4): 5 nM
- IC100 (HIV-1 NL 4-3 [1]; PBL, NL 4-3 strain, Table 4): 0.1 µM
- IC50 [2]: 6 nM
- IC100 [2]: 0.05 µM
- IC50 (HIV-1 NL 4-3 [3]): 10 nM

Molecule: C[C@H](NC(=O)[C@H](CCCNC(=N)N)NC(=O)CNC(=O)[C@@H]1CCCN1C(=O)CN)C(=O)N[C@@H](Cc1ccccc1)C(=O)NCCCC[C@H](NC(=O)[C@H](Cc1ccccc1)NC(=O)[C@H](C)NC(=O)[C@H](CCCNC(=N)N)NC(=O)CNC(=O)[C@@H]1CCCN1C(=O)CN)C(=O)NCCCCC(=O)O [SPC3 dimer valeric acid, (GPGRAF)2-K—NHCH2CH2CH2CH2COOH] (I: H-GPGRAFK[Ava]-OH / II: H-GPGRAF; amide I:7-II:C; N-terminus assumed)
- IC50 [2]: 8 nM
- IC100 [2]: 0.5 µM
- IC50 (HIV-1 NL 4-3 [3]): 50 nM

Molecule: SPC3-Tat [S3]
- Day 4 syncitia formed (HIV-1 NL 4-3 [4]; 0.05 μM): (+)
- Day 5 syncitia formed (HIV-1 NL 4-3 [4]; 0.05 μM): +
- Day 6 syncitia formed (HIV-1 NL 4-3 [4]; 0.05 μM): ++
- Day 7 syncitia formed (HIV-1 NL 4-3 [4]; 0.05 μM): ++
- Day 4 syncitia formed (HIV-1 NL 4-3 [4]; 0.1 μM): (+)
- Day 5 syncitia formed (HIV-1 NL 4-3 [4]; 0.1 μM): − and +
- Day 6 syncitia formed (HIV-1 NL 4-3 [4]; 0.1 μM): +
- Day 7 syncitia formed (HIV-1 NL 4-3 [4]; 0.1 μM): ++
- Day 4 syncitia formed (HIV-1 NL 4-3 [4]; 0.5 μM): −
- Day 5 syncitia formed (HIV-1 NL 4-3 [4]; 0.5 μM): −
- Day 6 syncitia formed (HIV-1 NL 4-3 [4]; 0.5 μM): −
- Day 7 syncitia formed (HIV-1 NL 4-3 [4]; 0.5 μM): (+) and +
- Day 4 syncitia formed (HIV-1 NL 4-3 [4]; 1 μM): −
- Day 5 syncitia formed (HIV-1 NL 4-3 [4]; 1 μM): −
- Day 6 syncitia formed (HIV-1 NL 4-3 [4]; 1 μM): −
- Day 7 syncitia formed (HIV-1 NL 4-3 [4]; 1 μM): −
- IC100 (HIV-1 NL 4-3 [1]; on PBL): 0.1 µM
- Day 4 syncitia formed (HIV-1 NL 4-3 [5]; 0.5 μM): −
- Day 5 syncitia formed (HIV-1 NL 4-3 [5]; 0.5 μM): −
- Day 6 syncitia formed (HIV-1 NL 4-3 [5]; 0.5 μM): −
- Day 7 syncitia formed (HIV-1 NL 4-3 [5]; 0.5 μM): + and (+)
- Day 4 syncitia formed (HIV-1 NL 4-3 [5]; 1 μM): −
- Day 5 syncitia formed (HIV-1 NL 4-3 [5]; 1 μM): −
- Day 6 syncitia formed (HIV-1 NL 4-3 [5]; 1 μM): −
- Day 7 syncitia formed (HIV-1 NL 4-3 [5]; 1 μM): − and +
- Day 4 syncitia formed (HIV-1 NL 4-3 [5]; 2 μM): −
- Day 5 syncitia formed (HIV-1 NL 4-3 [5]; 2 μM): −
- Day 6 syncitia formed (HIV-1 NL 4-3 [5]; 2 μM): −
- Day 7 syncitia formed (HIV-1 NL 4-3 [5]; 2 μM): −
- Day 4 syncitia formed (HIV-1 NL 4-3 [5]; 5 μM): −
- Day 5 syncitia formed (HIV-1 NL 4-3 [5]; 5 μM): −
- Day 6 syncitia formed (HIV-1 NL 4-3 [5]; 5 μM): −
- Day 7 syncitia formed (HIV-1 NL 4-3 [5]; 5 μM): −
- P 24 (HIV-1 NL 4-3 [3]; Day 4, 0.1 μM, Table 2): 61 pg/mL and 33 pg/mL
- P 24 (HIV-1 NL 4-3 [3]; Day 4, 2 μM, Table 1): NEG
- P 24 (HIV-1 NL 4-3 [3]; Day 4, 5 μM, Table 1): NEG
- P 24 (HIV-1 NL 4-3 [3]; Day 7, 0.05 μM, Table 2): 3664 pg/mL and 2064 pg/mL
- P 24 (HIV-1 NL 4-3 [3]; Day 7, 0.1 μM, Table 2): 787 pg/mL and 496 pg/mL
